Experimental data reported in patent US20230271928A1, “NAPHTHYLUREA COMPOUND, METHODS OF PREPARATION AND USE THEREOF” (Henan Radiomedical Science and Technology Co., Ltd., priority 2021, published 2023).
Like-named read-outs stand apart in the source and are kept apart here.

Legend:
Format in all cases: cell-based
[1] = test system: SMMC-7721 cells; test: MTT proliferation assay, SMMC-7721; conditions: Homo sapiens; SMMC-7721, MTT, 48 h
Procedure: (§1) Difference cell lines HepG2, SMMC-7721, HuH-7, MCF-7, MDA-MB-231, MDA-MB-468, PC9, PC9-AR, PC9-GR, Jurkat and Molt-13 were harvested during log phase; the number of the cells in an original cell suspension was counted; the original cell suspension was diluted to a density of 5×10^4 cells/mL; for a 96-well plate, 100 uL of the cell suspension was transferred to each well; DMSO is used as solvent for negative control; (2E)-3-(6-bromo-2-pyridyl)-2-cyano-N-[(1S)-1-phenylethyl]-2-acrylamide (WP1066CAS: 857064-38-1, with a formula
(§2) or gefitinib was used as a positive control; the naphthylurea compound ID1120B-1 and the phosphate ID1120B-P thereof were diluted with DMSO and added into the 96-well plate to achieve a final concentration of 0.1, 0.3, 1, 3, 10, 30, 100 and 300 μmol/L in each well; the 96-well plate was incubated for 48 h; 10 μL of MTT solvent (5 mg/mL) was added into each well; the 96-well plate was incubated at 37° C. for 4 h; a culture supernatant was discarded; 150 μL of DMSO was added into each well; the 96-well plate was shaken for 10 min on a plate shaker; an optical density (OD) of the resulting product was measured at a wavelength of 490 nm by an ELISA reader. Test results were recorded. A cell growth curve was drawn with the dosage of each compound as abscissa and the absorbance value as ordinate. The half maximum inhibition rates (IC50 value) of the cancer cells were shown in Table 1, FIGS. 1A-1J and FIGS. 2A-2J.

[2] = test system: HepG2 cells; test: MTT proliferation assay, HepG2; conditions: Homo sapiens
Procedure: as §1, §2

[3] = test system: MDA-MB-468 cells; test: MTT proliferation assay, MDA-MB-468; conditions: Homo sapiens, MDA-MB-468, MTT
Procedure: (§3) Test results were recorded. A cell growth curve was drawn with the dosage of each compound as abscissa and the absorbance value as ordinate.

[4] = test system: MCF-7 cells; test: MTT proliferation assay, MCF-7; conditions: Homo sapiens
Procedure: as §3

[5] = test system: HuH-7 cells; test: MTT proliferation assay, HuH-7; conditions: Homo sapiens; HuH-7, MTT, 48 h
Procedure: as §1, §2

[6] = test system: HepG2 cells; test: Cell cycle analysis by PI flow cytometry; conditions: HepG2, 48 h
Procedure: HepG2 cells were harvested during log phase, digested, centrifuged and prepared into a single cell suspension; the number of the cells in the single cell suspension was counted; the cells were seeded into a 12-well plate, with 2×10^5 cells per well; three wells were used as a parallel control design; 16 hours after seeding, the cells were treated with the compounds in a concentration gradient for 48 h; the cells were digested with trypsin and resuspended; the number of the cells in the cell suspension was counted and diluted to 5×10^5 cells/mL; after the digestion was completed, the cell suspension was centrifuged; the supernatant was discarded; the pellet was washed twice with PBS (each time the mixture was centrifuged 2000 rpm for 5 min); the supernatant was discarded; a fixative comprising 980 μL of 70% cold ethanol and 20 μL of 5% BSA (a small amount of BSA reduces cellular stress and damage) was added to each microcentrifuge tube, so that the cells were fixed overnight at 4° C.; the fixative is discarded; the cells were washed three times in PBS to remove residual fixative (each time the mixture was centrifuged at 1000 rpm for 3 min); a DNA quantification kit is used to measure the content of DNA according to the following instruction (Suo Laibao, Beijing): each sample was incubated in 100 μL of RNase A at 37° C. for 30 min; 500 μL of PI (propidium iodide) was added to each sample; each sample was incubated at room temperature for 30 min in the dark; the cell cycle was analyzed by a flow cytometry and a ModFit software; and Graphpad prism 6.0 was used to estimate the percentage of a cell population in the different phases of the cell cycle.

[7] = test system: MDA-MB-231 cells; test: MTT proliferation assay, MDA-MB-231; conditions: Homo sapiens; MDA-MB-231, MTT, 48 h
Procedure: as §3

[8] = MCF7, MCF-7, MTT, 48 h, read-out: IC50
[9] = compared with negative control (DMSO)

| SMILES | IC50 ([2]; HepG2, 48 h) | IC50 ([3]; MDA-MB-468, 48 h) | further results |
| --- | --- | --- | --- |
| O=C(NCc1cc(F)cc(F)c1)Nc1ccc(OCc2ccc(OCCN3CCCCC3)cc2)c2ccccc12 [IY210115B-1] | 5.77 µM |  | IC50 [1]: 40.1 µM |
| COc1ccc(NC(=O)Nc2ccc(OCc3ccc(OCCN4CCCCC4)cc3)c3ccccc23)cc1Cl [IY1225B-1] | 1.95 µM |  |  |
| O=C(Nc1ncccc1Cl)Nc1ccc(OCc2ccc(OCCN3CCCCC3)cc2)c2ccccc12 [ID210119B-1] | 26.5 µM | 26.6 µM |  |
| S=C(NCc1ccccc1)Nc1ccc(OCc2ccc(OCCN3CCCCC3)cc2)c2ccccc12 [IY1207A-1] |  |  | IC50 [4, 8]: 24.3 µM |
| O=C(Nc1ccc(OCc2ccc(OCCN3CCCCC3)cc2F)c2ccccc12)NC1CCCC1 [IY1215C-1] |  | 5.36 µM |  |
| O=C(Nc1ccc(F)c(F)c1)Nc1ccc(OCc2ccc(OCCN3CCCCC3)cc2)c2ccccc12 [ID210105C-1] | 66.9 µM |  |  |
| COc1ccc(NC(=O)Nc2ccc(OCc3ccc(OCCN4CCCCC4)cc3)c3ccccc23)cc1OC [ID1224C-1] | 93.8 µM |  |  |
| COc1ccc(NC(=O)Nc2ccc(OCc3ccc(OCCN4CCCCC4)c(Cl)c3)c3ccccc23)cc1 [ID210110C-1] |  | 6.13 µM |  |
| CNC(=O)c1cc(Oc2ccc(NC(=O)Nc3ccc(Cl)c(C(F)(F)F)c3)cc2)ccn1 [Sorafenib, reference compound] | 6.17 µM |  | IC50 [1]: 30 µM; IC50 [5]: 17.6 µM |
| O=C(NCc1ccc(F)cc1F)Nc1ccc(OCc2ccc(OCCN3CCCCC3)cc2)c2ccccc12 [IY210118B-1] |  |  | IC50 [1]: 23.6 µM |
| O=C(NCc1cccc(Cl)c1)Nc1ccc(OCc2ccc(OCCN3CCCCC3)cc2)c2ccccc12 [ID210106D-1] | 5.25 µM |  | IC50 [5]: 6.83 µM |
| O=C(Nc1ccc(Cl)cc1)Nc1ccc(OCc2ccc(OCCN3CCCCC3)cc2)c2ccccc12 [IY1229D-1] |  |  | IC50 ([3]; 48 h): 14.2 µM; IC50 ([2]; 48 h): 12.2 µM |
| O=C(Nc1ccc(Cl)cc1)Nc1ccc(OCc2ccc(OCCN3CCCCC3)c(F)c2)c2ccccc12 [IY210106D-1] |  |  | IC50 ([3]; 48 h): 6.34 µM |
| N#Cc1cc(OCCN2CCCCC2)ccc1COc1ccc(NC(=O)NCc2ccccc2)c2ccccc12 [ID1120D-1] |  |  | IC50 [1]: 6.89 µM |
| COc1ccc(CNC(=O)Nc2ccc(OCc3ccc(OCCN4CCCCC4)cc3)c3ccccc23)cc1 [ID210113C-1] | 1.31 µM |  | IC50 [5]: 4.75 µM |
| O=C(NCc1ccc(F)c(Cl)c1)Nc1ccc(OCc2ccc(OCCN3CCCCC3)cc2)c2ccccc12 [ID210115B-1] | 4.65 µM |  | IC50 [4, 8]: 39 µM |
| O=C(Nc1ccc(F)cc1)Nc1ccc(OCc2ccc(OCCN3CCCCC3)cc2)c2ccccc12 [IY210105D-1] | 3.8 µM | 3.8 µM |  |
| O=C(Nc1ccc(F)cc1)Nc1ccc(OCc2ccc(OCCN3CCCCC3)c(Br)c2)c2ccccc12 [IY210105A-1] |  | 20.4 µM |  |
| O=C(Nc1ccc(-c2ccccc2)cc1)Nc1ccc(OCc2ccc(OCCN3CCCCC3)cc2)c2ccccc12 [IY210128B-1] |  | 62.5 µM |  |

| SMILES | IC50 ([2]; HepG2, 48 h) | IC50 ([3]; MDA-MB-468, 48 h) | further results |
| --- | --- | --- | --- |
| O=C(Nc1ccc(OCc2ccc(OCCN3CCCCC3)cc2)c2ccccc12)NC1CCCCC1 [ID1207B-1] |  |  | IC50 ([3]; 48 h): 267 µM; IC50 ([2]; 48 h): 462 µM |
| O=C(Nc1ccncc1)Nc1ccc(OCc2ccc(OCCN3CCCCC3)cc2)c2ccccc12 [IY210122C-1] | 11 µM | 11.6 µM |  |
| O=C(Nc1ccc(Cl)c(F)c1)Nc1ccc(OCc2ccc(OCCN3CCCCC3)cc2)c2ccccc12 [IY1229C-1] | 6.43 µM |  |  |
| O=C(NCc1ccc(OC(F)(F)F)cc1)Nc1ccc(OCc2ccc(OCCN3CCCCC3)cc2)c2ccccc12 [ID210118D-1] | 37 µM |  | IC50 [5]: 26.5 µM |
| O=C(Nc1ccc(OCc2ccc(OCCN3CCCCC3)cc2)c2ccccc12)NC1CCCC1 [ID1217B-1] | 72.6 µM | 33.9 µM |  |
| O=C(Nc1ccc(Cl)cc1F)Nc1ccc(OCc2ccc(OCCN3CCCCC3)cc2)c2ccccc12 [IY210103B-1] | 68.2 µM | 20.4 µM |  |
| O=C(Nc1ccc(OCc2ccc(OCCN3CCCCC3)cc2)c2ccccc12)NC1CCOCC1 [ID210127B-1] | 3.5 µM | 0.736 µM |  |
| O=C(Nc1ccccc1)Nc1ccc(OCc2ccc(OCCN3CCCCC3)cc2)c2ccccc12 [IY1223B-1] |  | 13.2 µM |  |
| O=C(NCCc1ccccc1)Nc1ccc(OCc2ccc(OCCN3CCCCC3)cc2)c2ccccc12 [ID1210B-1] |  |  | IC50 ([4]; MCF7, 48 h): 8.08 µM |
| COc1cc(NC(=O)Nc2ccc(OCc3ccc(OCCN4CCCCC4)cc3)c3ccccc23)ccc1F [IY210105C-1] | 4.39 µM | 1.89 µM |  |
| O=C(NCc1ccc(Cl)c(C(F)(F)F)c1)Nc1ccc(OCc2ccc(OCCN3CCCCC3)cc2)c2ccccc12 [ID210114B-1] | 3.97 µM |  | IC50 [4, 8]: 13.2 µM |
| O=C(Nc1ccc(F)c(Cl)c1)Nc1ccc(OCc2ccc(OCCN3CCCCC3)cc2)c2ccccc12 [IY210105B-1] | 43.8 µM | 51.4 µM |  |
| O=C(NCc1ccccc1)Nc1ccc(OCc2ccc(OCCN3CCCCC3)c(Cl)c2)c2ccccc12 [ID1120C-1] |  |  | IC50 [1]: 6.75 µM |
| O=C(Nc1ccc(Cl)c(Cl)c1)Nc1ccc(OCc2ccc(OCCN3CCCCC3)cc2)c2ccccc12 [ID1214B-1] | 0.88 µM | 688 µM | IC50 [1]: 8.73 µM; IC50 [4, 8]: 88.4 µM; induction of cells in the G2/M phase [6, 9]: dramatically induce the liver cancer cells in the G2/M phase in a dose-dependent manner; percentage of cells in the G1/S phase [6, 9]: significantly decrease the percentage of the liver cancer cells in the G1/S phase; length of the G2 phase, % of the cell cycle, after treatment ([6]; value reached after treatment (increase from DMSO control value)): 17.54%; IC50 [7]: 114 µM |
| O=C(Nc1ccc(OCc2ccc(OCCN3CCCCC3)cc2Cl)c2ccccc12)NC1CCCCC1 [ID1215C-1] |  |  | IC50 ([3]; 48 h): 3.47 µM |
| O=C(NCc1ccc(F)cc1)Nc1ccc(OCc2ccc(OCCN3CCCCC3)cc2)c2ccccc12 [IY210119B-1] | 3.5 µM |  | IC50 [1]: 0.736 µM |
| O=C(NCc1ccc(Cl)cc1)Nc1ccc(OCc2ccc(OCCN3CCCCC3)cc2)c2ccccc12 [IY210113C-1] | 3.94 µM |  | IC50 [5]: 12.5 µM |
| O=C(Nc1ccc(OC(F)(F)F)c(Cl)c1)Nc1ccc(OCc2ccc(OCCN3CCCCC3)cc2)c2ccccc12 [ID1229C-1] | 50.3 µM | 47.5 µM |  |
| O=C(NCc1ccc(C(F)(F)F)cc1)Nc1ccc(OCc2ccc(OCCN3CCCCC3)cc2)c2ccccc12 [IY210113D-1] | 3.36 µM |  | IC50 [5]: 13.7 µM |
